# ChEMBL document CHEMBL2412969, “Antihyperglycemic and antihyperlipidemic activities of 2-(4-[(2-hydroxybenzyl) amino]-phenyl amino-methyl)-phenol in STZ induced diabetic rats” (Eur J Med Chem, 2013)
# Active and inactive are the calls of the source. The rule behind the calls is not given here.
# How the values were obtained:
# Rattus norvegicus [1] = assay: Antihyperglycemic activity in Wistar albino rat streptozotocin-induced diabetic model assessed as reduction of blood glucose level at 20 mg/kg, po after 6 hrs (reference value: 372.5 +/- 15.6 mg/dl); type: functional
# Rattus norvegicus [2] = assay: Antihyperglycemic activity in Wistar albino rat streptozotocin-induced diabetic model assessed as reduction of blood glucose level at 20 mg/kg, po after 5 hrs (reference value: 372.2 +/- 16.6 mg/dl); type: functional
# Rattus norvegicus [3] = assay: Antihyperglycemic activity in Wistar albino rat streptozotocin-induced diabetic model assessed as reduction of blood glucose level at 20 mg/kg, po after 4 hrs (reference value: 373.5 +/- 15.6 mg/dl); type: functional
# Rattus norvegicus [4] = assay: Antihyperglycemic activity in Wistar albino rat streptozotocin-induced diabetic model assessed as reduction of blood glucose level at 20 mg/kg, po after 3 hrs (reference value: 384.33 +/- 17.33 mg/dl); type: functional
# Rattus norvegicus [5] = assay: Antihyperglycemic activity in Wistar albino rat streptozotocin-induced diabetic model assessed as reduction of blood glucose level at 20 mg/kg, po after 2 hrs (reference value: 386.66 +/- 17.5 mg/dl); type: functional
# Rattus norvegicus [6] = assay: Antihyperglycemic activity in Wistar albino rat streptozotocin-induced diabetic model assessed as reduction of blood glucose level at 20 mg/kg, po after 1 hr (reference value: 389.16 +/- 19 mg/dl); type: functional
# Rattus norvegicus [7] = assay: Antiatherosclerosis activity in Wistar albino rat streptozotocin-induced diabetic model assessed as protection from atherogenicity at 20 mg/kg, po qd for 30 days relative to control; type: functional
# Rattus norvegicus [8] = assay: Renalprotective activity in Wistar albino rat assessed as protection against streptozotocin-induced increase in creatinine level in blood at 20 mg/kg, po qd for 30 days; type: functional
# Rattus norvegicus [9] = assay: Renalprotective activity in Wistar albino rat assessed as protection against streptozotocin-induced increase in urea level in blood at 20 mg/kg, po qd for 30 days; type: functional
# Rattus norvegicus [10] = assay: Antihyperlipidemic activity in Wistar albino rat streptozotocin-induced diabetic model assessed as increase of serum HDL-cholesterol level at 20 mg/kg, po qd for 30 days; type: functional, organism-based; parameters: dose 20 mg/kg
# Rattus norvegicus [11] = assay: Antihyperlipidemic activity in Wistar albino rat streptozotocin-induced diabetic model assessed as reduction of serum VLDL-cholesterol level at 20 mg/kg, po qd for 30 days; type: functional, organism-based; parameters: dose 20 mg/kg
# Rattus norvegicus [12] = assay: Antihyperlipidemic activity in Wistar albino rat streptozotocin-induced diabetic model assessed as reduction of serum LDL level at 20 mg/kg, po qd for 30 days; type: functional, organism-based; parameters: dose 20 mg/kg
# Rattus norvegicus [13] = assay: Antihyperlipidemic activity in Wistar albino rat streptozotocin-induced diabetic model assessed as reduction of serum total cholesterol level at 20 mg/kg, po qd for 30 days; type: functional, organism-based; parameters: dose 20 mg/kg
# Rattus norvegicus [14] = assay: Antihyperlipidemic activity in Wistar albino rat streptozotocin-induced diabetic model assessed as reduction of serum triglyceride level at 20 mg/kg, po qd for 30 days; type: functional, organism-based; parameters: dose 20 mg/kg
# Rattus norvegicus [15] = assay: Antihyperglycemic activity in Wistar albino rat streptozotocin-induced diabetic model assessed as increase of body weight at 20 mg/kg, po qd measured on day 15 (reference value: -30.3%); type: functional
# Rattus norvegicus [16] = assay: Antihyperglycemic activity in Wistar albino rat streptozotocin-induced diabetic model assessed as reduction of fasting blood glucose level at 20 mg/kg, po qd measured on day 30 relative to control; type: functional
# Rattus norvegicus [17] = assay: Antihyperglycemic activity in Wistar albino rat streptozotocin-induced diabetic model assessed as reduction of fasting blood glucose level at 20 mg/kg, po qd measured on day 15 (reference value: 404.2 +/- 29.15 mg/dl); type: functional
# Rattus norvegicus [18] = assay: Antihyperglycemic activity in Wistar albino rat streptozotocin-induced diabetic model assessed as reduction of fasting blood glucose level at 20 mg/kg, po qd measured on day 1 (reference value: 416.4 +/- 24.2 mg/dl); type: functional
smiles,measurement,setting,value
COc1ccc(Cl)cc1C(=O)NCCc1ccc(S(=O)(=O)NC(=O)NC2CCCCC2)cc1 [GLYBURIDE],Activity,Rattus norvegicus [1],206 mg/dL
same,Activity,Rattus norvegicus [2],188.1 mg/dL
same,Activity,Rattus norvegicus [3],197.6 mg/dL
same,Activity,Rattus norvegicus [4],213.3 mg/dL
same,Activity,Rattus norvegicus [5],237 mg/dL
same,Activity,Rattus norvegicus [6],243.5 mg/dL
same,Activity,Rattus norvegicus [7],55.5%
same,Activity,Rattus norvegicus [8],0.425 mg/dL
same,Activity,Rattus norvegicus [9],49.1 mg/dL
same,Activity,Rattus norvegicus [10],Active
same,Activity,Rattus norvegicus [11],Active
same,Activity,Rattus norvegicus [12],Active
same,Activity,Rattus norvegicus [13],Active
same,Activity,Rattus norvegicus [14],Active
same,Activity,Rattus norvegicus [15],-10%
same,Activity,Rattus norvegicus [16],188.1 mg/dL
same,Activity,Rattus norvegicus [17],204 mg/dL
same,Activity,Rattus norvegicus [18],356 mg/dL
